Assay: xn = mol fraction of the nth substance listed
Settings: 100 kPa, Liquid; for viscosity: Falling or rolling sphere viscometry; for mass density: Vibrating tube method

CCCCC1CCCCC1 [butylcyclohexane] + CCCCCCCCCCCCCC
Settings | mass density, 293.15 K [kg/m3] | mass density, 298.15 K [kg/m3] | mass density, 303.15 K [kg/m3] | mass density, 308.15 K [kg/m3] | mass density, 313.15 K [kg/m3] | viscosity, 293.15 K [mPa·s] | viscosity, 298.15 K [mPa·s] | viscosity, 303.15 K [mPa·s] | viscosity, 308.15 K [mPa·s] | viscosity, 313.15 K [mPa·s]
x1 = 0.0516 | 764.33 | 760.8 | 757.26 | 753.73 | 750.2 | 2.28 | 2.052 | 1.86 | 1.694 | 1.553
x1 = 0.1 | 765.53 | 762 | 758.46 | 754.92 | 751.38 | 2.234 | 2.011 | 1.823 | 1.662 | 1.523
x1 = 0.2001 | 768.14 | 764.6 | 761.06 | 757.51 | 753.96 | 2.135 | 1.924 | 1.746 | 1.593 | 1.463
x1 = 0.2988 | 770.93 | 767.38 | 763.83 | 760.27 | 756.69 | 2.037 | 1.838 | 1.67 | 1.526 | 1.401
x1 = 0.4001 | 774.02 | 770.46 | 766.89 | 763.31 | 759.72 | 1.934 | 1.749 | 1.592 | 1.457 | 1.341
x1 = 0.498 | 777.26 | 773.68 | 770.08 | 766.49 | 762.88 | 1.834 | 1.662 | 1.517 | 1.391 | 1.282
x1 = 0.6006 | 780.95 | 777.36 | 773.74 | 770.12 | 766.49 | 1.728 | 1.571 | 1.436 | 1.32 | 1.218
x1 = 0.7005 | 784.9 | 781.27 | 777.63 | 773.98 | 770.33 | 1.625 | 1.481 | 1.358 | 1.25 | 1.155
x1 = 0.7999 | 789.23 | 785.57 | 781.9 | 778.21 | 774.53 | 1.521 | 1.391 | 1.279 | 1.18 | 1.092
x1 = 0.9002 | 794.07 | 790.38 | 786.66 | 782.94 | 779.22 | 1.416 | 1.299 | 1.199 | 1.109 | 1.029
x1 = 0.95 | 796.66 | 792.94 | 789.21 | 785.48 | 781.73 | 1.363 | 1.254 | 1.159 | 1.073 | 0.998
x1 = 1 | 799.44 | 795.7 | 791.95 | 788.19 | 784.41 | 1.296 | 1.196 | 1.107 | 1.027 | 0.958

CCCCC1CCCCC1 [butylcyclohexane] + CCCCCCC
Settings | mass density, 293.15 K [kg/m3] | mass density, 298.15 K [kg/m3] | mass density, 303.15 K [kg/m3] | mass density, 308.15 K [kg/m3] | mass density, 313.15 K [kg/m3] | viscosity, 293.15 K [mPa·s] | viscosity, 298.15 K [mPa·s] | viscosity, 303.15 K [mPa·s] | viscosity, 308.15 K [mPa·s] | viscosity, 313.15 K [mPa·s]
x1 = 0.0499 | 691.14 | 686.96 | 682.7 | 678.43 | 674.27 | 0.445 | 0.422 | 0.404 | 0.38 | 0.365
x1 = 0.0991 | 698.01 | 693.86 | 689.65 | 685.41 | 681.26 | 0.477 | 0.453 | 0.432 | 0.408 | 0.39
x1 = 0.2001 | 711.59 | 707.49 | 703.36 | 699.21 | 695.08 | 0.537 | 0.51 | 0.485 | 0.463 | 0.44
x1 = 0.2995 | 724.33 | 720.29 | 716.21 | 712.12 | 708.05 | 0.597 | 0.564 | 0.533 | 0.508 | 0.484
x1 = 0.4006 | 736.73 | 732.74 | 728.7 | 724.68 | 720.66 | 0.665 | 0.623 | 0.59 | 0.56 | 0.531
x1 = 0.4984 | 748.17 | 744.24 | 740.26 | 736.29 | 732.29 | 0.741 | 0.694 | 0.652 | 0.617 | 0.584
x1 = 0.6015 | 759.68 | 755.81 | 751.86 | 747.93 | 744 | 0.832 | 0.776 | 0.727 | 0.685 | 0.646
x1 = 0.6993 | 770.09 | 766.25 | 762.36 | 758.5 | 754.58 | 0.929 | 0.865 | 0.808 | 0.758 | 0.713
x1 = 0.7999 | 780.33 | 776.52 | 772.68 | 768.84 | 764.98 | 1.042 | 0.966 | 0.9 | 0.842 | 0.789
x1 = 0.8999 | 790.07 | 786.3 | 782.5 | 778.7 | 774.89 | 1.172 | 1.083 | 1.005 | 0.936 | 0.875
x1 = 0.9501 | 794.82 | 791.06 | 787.29 | 783.51 | 779.72 | 1.242 | 1.146 | 1.059 | 0.988 | 0.922
x1 = 1 | 799.44 | 795.7 | 791.95 | 788.19 | 784.41 | 1.296 | 1.196 | 1.107 | 1.027 | 0.958

CCCCC1CCCCC1 [butylcyclohexane] + CCCCCCCCC
Settings | mass density, 293.15 K [kg/m3] | mass density, 298.15 K [kg/m3] | mass density, 303.15 K [kg/m3] | mass density, 308.15 K [kg/m3] | mass density, 313.15 K [kg/m3] | viscosity, 293.15 K [mPa·s] | viscosity, 298.15 K [mPa·s] | viscosity, 303.15 K [mPa·s] | viscosity, 308.15 K [mPa·s] | viscosity, 313.15 K [mPa·s]
x1 = 0.0496 | 721.95 | 718.07 | 714.19 | 710.29 | 706.36 | 0.745 | 0.698 | 0.659 | 0.621 | 0.588
x1 = 0.1008 | 726.12 | 722.26 | 718.38 | 714.48 | 710.57 | 0.764 | 0.718 | 0.677 | 0.638 | 0.603
x1 = 0.2011 | 734.29 | 730.45 | 726.59 | 722.71 | 718.81 | 0.807 | 0.754 | 0.712 | 0.668 | 0.63
x1 = 0.3005 | 742.39 | 738.56 | 734.71 | 730.85 | 726.97 | 0.852 | 0.794 | 0.745 | 0.698 | 0.659
x1 = 0.3997 | 750.46 | 746.65 | 742.81 | 738.96 | 735.1 | 0.901 | 0.836 | 0.783 | 0.733 | 0.692
x1 = 0.4999 | 758.62 | 754.82 | 751 | 747.17 | 743.32 | 0.956 | 0.885 | 0.827 | 0.774 | 0.729
x1 = 0.5987 | 766.67 | 762.89 | 759.08 | 755.26 | 751.43 | 1.015 | 0.94 | 0.876 | 0.82 | 0.77
x1 = 0.7011 | 775.04 | 771.26 | 767.46 | 763.66 | 759.85 | 1.081 | 1.002 | 0.934 | 0.873 | 0.817
x1 = 0.8001 | 783.13 | 779.35 | 775.57 | 771.78 | 767.98 | 1.152 | 1.068 | 0.996 | 0.927 | 0.866
x1 = 0.8996 | 791.25 | 787.5 | 783.73 | 779.96 | 776.17 | 1.223 | 1.135 | 1.052 | 0.98 | 0.915
x1 = 0.9504 | 795.39 | 791.64 | 787.88 | 784.11 | 780.33 | 1.262 | 1.166 | 1.08 | 1.005 | 0.938
x1 = 1 | 799.44 | 795.7 | 791.95 | 788.19 | 784.41 | 1.296 | 1.196 | 1.107 | 1.027 | 0.958
